Values of other authors as cited in US20260027218A1, “STAR-SHAPED GRAFT COPOLYMERS” (POLYPEPTIDE THERAPEUTIC SOLUTIONS, S.L., priority 2022, published 2026).

SMILES: CCN(CC)c1ccc2nc3c4ccccc4c(=O)cc-3oc2c1 [Nile Red]
- log P: 2.98
